From patent US11672868B2, “Bicyclic peptide ligands specific for MT1-MMP” (priority 2014, dated 2023)
Like-named read-outs stand apart in the source and are kept apart here. Marks after values point to notes of the source that are not given here. Numbered stars: 1 amine (or outer) side, 2 acyl side, 3 side chain; on linkers, the order of the positions; unused ones are H or OH. Bridge positions count the residues as written; N and C are the ends. Square brackets hold non-standard residues; d marks the D form. Peptide text beside a SMILES is read from it. I, II: the chains in the order shown. * marks the point of attachment. X3 = COc1cc2cc(c1Cl)N(C)C(=O)C[C@H](OC(=O)[C@H](C)N(C)C(=O)CCSSCCCC(=O)*)[C@]1(C)O[C@H]1[C@H](C)[C@@H]1C[C@@](O)(NC(=O)O1)[C@H](OC)/C=C/C=C(\C)C2; Dolaproine = CO[C@@H]([C@@H]1CCCN1)[C@@H](C)C(=O)O; Dil = CC[C@H](C)[C@H](NC)[C@@H](CC(=O)O)OC; Phe(4-Br) = N[C@@H](Cc1ccc(Br)cc1)C(=O)O; 1Nal = N[C@@H](Cc1cccc2ccccc12)C(=O)O; TBMB = c1c(C[*:1])cc(C[*:3])cc1C[*:2]; PABC = O=C(OCc1ccc(N[*:1])cc1)[*:2]; Glutaryl = O=C(CCCC(=O)[*:2])[*:1]; X4 = C[C@@H](N*)[C@@H](O)c1ccccc1; Cit = NC(=O)NCCC[C@H](N)C(=O)O; Tle = CC(C)(C)[C@H](N)C(=O)O; NMeV = CN[C@H](C(=O)O)C(C)C; Sar = CNCC(=O)O

Legend:
[1] = Mouse pharmacokinetics, single intravenous dose; type: in vivo; settings: male CD1 mice, single intravenous 5.925 mg/kg, mean
Experimental: Mouse pharmacokinetics were acquired using bicyclic peptide 17-69-04-N004, which was dosed to one group of 12 male CD1 mice as a single intravenous, 5.925 mg/kg doses as a 5 mL/kg bolus of a 1.19 mg/mL solution. […] Blood samples were taken from two animals per time-point, via cardiac puncture under terminal anaesthesia, at 0.08, 0.5, 1, 2 and 4 hours post-dose, and transferred to EDTA tubes for plasma generation. Plasma samples were immediately frozen at −20 C. For analysis, samples were thawed rapidly and 50 μL aliquots were treated with 3 volumes of extraction solvent (2:9:9 mixture of 10 mM ammonium bicarbonate, pH 8, acetonitrile and methanol, containing an analytical internal standard). Precipitated proteins were removed by centrifugation and the supernatant was analysed by LC-MS/MS. Quantification of the samples was by reference to a calibration line prepared in control mouse plasma. Pharmacokinetic parameters were determined by non-compartmental analysis using the software package PK Solutions 2.0 from Summit Research Services.
Cmax: Maximum measured concentration;
Tmax: Time at which maximum concentration was measured;
AUC 0-t: Area under the plasma drug concentration/time curve from 0 minutes to last quantifiable data point; and
AUC 0-∞: Area under the plasma drug concentration/time curve from 0 minutes extrapolated beyond the final data point based on the terminal half-life.

[2] = Plasma stability, quantitative LC-MS (Method #2); type: in vitro ADME, mouse; settings: ex vivo mouse plasma at 37° C., Method #2 (FIG. 1, FIG. 3A); read-out: half-life of the peptide in mouse plasma (converted)
Experimental: (§1) To obtain plasma stability of bicyclic peptides quantitatively, peptide stock solutions (200 μM in DMSO) were mixed with plasma (human or mouse), such that final concentrations were 10 μM. 40 μL samples were taken periodically up to 8 hrs and frozen at −80° C. Prior to LC-MS analysis, samples were defrosted, and mixed with 3 volumes (here, 120 μL) of 1:1 acetonitrile/MeOH water. The milky suspensions were centrifuged for 30 min at 13000 rpm, and peptide-containing supernatants were quantitated for doubly/triply charged species and MS/MS fragments thereof using a Waters Xevo TQ-D instrument, while using a plasma extracted standard curve of the same peptides as a reference. The half-life of degradation in plasma was used to assess the comparative stability of the molecules.

[3] = Plasma stability, quantitative LC-MS (Method #2); type: in vitro ADME, human; settings: human, human plasma, 37° C.; sentence prints mouse plasma; read-out: half-life of the peptide in plasma (FIG. 3B, human plasma stability) (converted)
Experimental: as §1, with “[…] […]” for “To obtain plasma stability of bicyclic peptides quantitatively, peptide stock solutions (200 μM in DMSO) were mixed with plasma (human or mouse), such that final concentrations were 10 μM. 40 μL samples were taken periodically up to 8 hrs and frozen at −80° C.”

[4] = test system: HT-1080 xenograft tumours; assay: Efficacy in HT-1080 xenograft mice; type: in vivo, mouse; settings: HT1080 xenograft
Experimental: Balb/c nude mice bearing subcutaneous HT-1080 xenograft tumours were treated with BDCs or vehicle (PBS). BDCs were dosed 3 times weekly for 2 weeks, dosing initiated when tumours measured approx. 150-200 mm^3. Mice were monitored, and measurements of tumour volume and body weight recorded 3 times a week.

[5] = test system: human lung squamous cell carcinoma line EBC-1; assay: Efficacy in EBC-1 xenograft mice; type: in vivo, mouse; settings: mouse bearing EBC-1 tumours; ± 95% confidence limit
Experimental: In vivo efficacy of BT17BDC-17, BT17BDC-18, BT17BDC-19 and BT17BDC-20 All BDCs containing the stabilised bicycle core sequence were tested for their efficacies in in vivo mouse xenograft models, using the human lung squamous cell carcinoma line EBC-1.
The area under the curve (AUC) of tumour volume over time and BDC was taken and plotted against the corresponding dose group (FIG. 13).

| Structure (SMILES) | half-life at 10 μM [2] [h] | half-life at 10 μM [3] [h] | weight of the animals during treatment [4] | further results |
| --- | --- | --- | --- | --- |
| CC[C@H](C)[C@@H]1NC(=O)[C@H](CC(=O)O)NC(=O)[C@H](Cc2ccc(O)cc2)NC(=O)[C@H](Cc2ccccc2)NC(=O)[C@H](CC(=O)O)NC(=O)[C@H](CCC(=O)O)NC(=O)[C@@H]2CSCc3cc(cc(c3)CSC[C@H](NC(C)=O)C(=O)N[C@@H](Cc3ccc(O)cc3)C(=O)N[C@@H](CC(N)=O)C(=O)N[C@@H](CCC(=O)O)C(=O)N[C@@H](Cc3ccccc3)C(=O)NCC(=O)N2)CSC[C@@H](C(N)=O)NC1=O [17-69-07-N004, Ac-(17-69-07) (wildtype)] | – | – | – | Clearance based on AUC 0-∞ [1]: 20.7 mL/min/kg; Volume of Distribution based on AUC 0-∞ [1]: 0.4 L/kg |
| C[C@H](NC(=O)CN(C)C(=O)CN(C)C(=O)CN(C)C(=O)CN(C)C(=O)CN(C)C(=O)CN(C)C(=O)CN(C)C(=O)CN(C)C(=O)CN(C)C(=O)CN(C)C(=O)CN)C(=O)N[C@H]1CSCc2cc3cc(c2)CSC[C@H](NC(=O)[C@@H](C)NC(=O)[C@H](Cc2cccc4ccccc24)NC(=O)[C@H](CCC(=O)O)NC(=O)[C@H](CC(N)=O)NC(=O)[C@@H](C)NC1=O)C(=O)N[C@@H](CCC(=O)O)C(=O)N[C@@H](CC(=O)O)C(=O)N[C@@H](Cc1ccccc1)C(=O)N[C@@H](Cc1ccc(O)cc1)C(=O)N[C@@H](CC(=O)O)C(=O)N[C@@H](C(C)(C)C)C(=O)N[C@H](C(N)=O)CSC3 [17-69-07-N231, G-Sar10-A-(17-69-07) D-Ala1 1Nal4 D-Ala5 tBuGly11] (H-G[Sar][Sar][Sar][Sar][Sar][Sar][Sar][Sar][Sar][Sar]AC[dA]NE[1Nal][dA]CEDFYD[Tle]C-NH2; linker 13-19-26 via TBMB; C-terminus assumed) | > 20 | > 20 | – | – |
| C[C@H](NC(=O)CN(C)C(=O)CN(C)C(=O)CN(C)C(=O)CN(C)C(=O)CN(C)C(=O)CN(C)C(=O)CN(C)C(=O)CN(C)C(=O)CN(C)C(=O)CN(C)C(=O)CN)C(=O)N[C@H]1CSCc2cc3cc(c2)CSC[C@H](NC(=O)[C@@H](C)NC(=O)[C@H](Cc2cccc4ccccc24)NC(=O)[C@H](CCC(=O)O)NC(=O)[C@H](CC(N)=O)NC(=O)[C@@H](C)NC1=O)C(=O)N[C@@H](CCC(=O)O)C(=O)N[C@@H](CC(=O)O)C(=O)N[C@@H](Cc1ccccc1)C(=O)N[C@@H](Cc1ccc(Br)cc1)C(=O)N[C@@H](CC(=O)O)C(=O)N[C@@H](C(C)(C)C)C(=O)N[C@H](C(N)=O)CSC3 [17-69-07-N244, G-Sar10-A-(17-69-07) D-Ala1 1Nal4 D-Ala5 4BrPhe9 tBuGly11] (H-G[Sar][Sar][Sar][Sar][Sar][Sar][Sar][Sar][Sar][Sar]AC[dA]NE[1Nal][dA]CEDF[Phe(4-Br)]D[Tle]C-NH2; linker 13-19-26 via TBMB; C-terminus assumed) | > 20 | > 20 | – | – |
| CC[C@H](C)[C@@H]([C@@H](CC(=O)N1CCC[C@H]1[C@H](OC)[C@@H](C)C(=O)N[C@H](C)[C@@H](O)c1ccccc1)OC)N(C)C(=O)[C@@H](NC(=O)[C@H](C(C)C)N(C)C(=O)OCc1ccc(NC(=O)[C@H](CCCNC(N)=O)NC(=O)[C@@H](NC(=O)CCCC(=O)NCC(=O)N(C)CC(=O)N(C)CC(=O)N(C)CC(=O)N(C)CC(=O)N(C)CC(=O)N(C)CC(=O)N(C)CC(=O)N(C)CC(=O)N(C)CC(=O)N(C)CC(=O)N[C@@H](C)C(=O)N[C@H]2CSCc3cc4cc(c3)CSC[C@H](NC(=O)CNC(=O)[C@H](Cc3ccccc3)NC(=O)[C@H](CCC(=O)O)NC(=O)[C@H](CC(N)=O)NC(=O)[C@H](Cc3ccc(O)cc3)NC2=O)C(=O)N[C@@H](CCC(=O)O)C(=O)N[C@@H](CC(=O)O)C(=O)N[C@@H](Cc2ccccc2)C(=O)N[C@@H](Cc2ccc(O)cc2)C(=O)N[C@@H](CC(=O)O)C(=O)N[C@@H]([C@@H](C)CC)C(=O)N[C@H](C(N)=O)CSC4)C(C)C)cc1)C(C)C [BT17BDC-1] (I: G[Sar][Sar][Sar][Sar][Sar][Sar][Sar][Sar][Sar][Sar]ACYNEFGCEDFYDIC-NH2 / II: V[Cit][PABC][NMeV]V[Dil][Dolaproine]-X4; linker I:13-I:19-I:26 via TBMB; linker I:N-II:N via Glutaryl) | – | – | largely stable | – |
| CC[C@H](C)[C@@H]1NC(=O)[C@H](CC(=O)O)NC(=O)[C@H](Cc2ccc(O)cc2)NC(=O)[C@H](Cc2ccccc2)NC(=O)[C@H](CC(=O)O)NC(=O)[C@H](CCC(=O)O)NC(=O)[C@@H]2CSCc3cc(cc(c3)CSC[C@H](NC(=O)[C@H](C)NC(=O)CN(C)C(=O)CN(C)C(=O)CN(C)C(=O)CN(C)C(=O)CN(C)C(=O)CN(C)C(=O)CN(C)C(=O)CN(C)C(=O)CN(C)C(=O)CN(C)C(=O)CNC(=O)CCCSSCCC(=O)N(C)[C@@H](C)C(=O)O[C@H]3CC(=O)N(C)c4cc(cc(OC)c4Cl)C/C(C)=C/C=C/[C@@H](OC)[C@@]4(O)C[C@H](OC(=O)N4)[C@@H](C)[C@@H]4O[C@@]34C)C(=O)N[C@@H](Cc3ccc(O)cc3)C(=O)N[C@@H](CC(N)=O)C(=O)N[C@@H](CCC(=O)O)C(=O)N[C@@H](Cc3ccccc3)C(=O)NCC(=O)N2)CSC[C@@H](C(N)=O)NC1=O [BT17BDC-9] (X3-G[Sar][Sar][Sar][Sar][Sar][Sar][Sar][Sar][Sar][Sar]ACYNEFGCEDFYDIC-NH2; linker 13-19-26 via TBMB) | – | – | largely stable | reduction in tumour volume compared to vehicle control ([4]; after 9 days post injection): significant reduction in tumour volume; ED50, effective dose to achieve 50% tumour AUC reduction [5]: 2.1 ± 1.1^b mg/kg |
